*1 amine or outer side, *2 acyl side, *3 side chain or, on linkers, in order; H or OH if unused. Where a SMILES comes first, the peptide text is derived from it. Bridges are numbered along the chain shown (N, C = ends). [ ]: non-standard residue; d: D form. X1 = CC(C)CCCCCCCCC[C@H](CC(=O)[*:1])O[*:2]
Legend:
[1] = Determination of biosurfactant CMC values; type: physicochemical; conditions: for CMC: water solution
Source text: Determination method of biosurfactant CMC values: prepare different concentrations of water solution from pure biosurfactants to be determined, and measure its surface tension with surface tension meter. With the increase of surface activity (concentration), the surface tension of water solution gradually […]. The surface tension stops decreasing when the concentration increases to a certain level. The amount of surfactant corresponding to this critical surface tension is CMC value.

[2] = Determination of biosurfactant MAD (Minimum Active Dose) by oil expansion experiment; type: physicochemical
Source text: Determination method of biosurfactant MAD (Minimum Active Dose) values: prepare different concentrations of water solution from pure biosurfactants to be determined, and measure the oil expansion activity through oil expansion experiment. With the decrease of concentration, the oil expansion ability of water solution becomes weaker and weaker, and completely disappears when the concentration decreases to a certain level. The amount of surfactant at the time of oil expansion ability disappearing is the MAD value.

Bacillus plakortidis = experiment: Antibacterial activity, filter paper method; type: cell-based; conditions: 28° C.
Source text: (§1) Antibacterial activity test method: use filter paper method to detect antibacterial activity of biosurfactant produced by fermentation of strain Alcanivorax dieselolei T6-6. The indicator bacteria are Gram-negative bacteria, Gram-positive bacteria, endophytic pathogenic fungus in tea tree and yeasts. Specific steps: coat the well-shaken indicator bacteria on the culture plate, stick filter paper on each scribe region, and drip surfactant on filter paper. The control group is the methanol solvent of same amount. After bacteria are inverted cultured in constant temperature incubation at 28° C. for a certain period (different indicator bacteria have different growth cycles; bacteria grow quickly, but endophytic fungus in tea tree should grow 3-5 days), and observe the results to detect inhibition zone. If there is an inhibition zone, its size should be measured.

Bacillus rhizosphaerae = experiment: Antibacterial activity, filter paper method; type: cell-based; conditions: 28° C.
Source text: as §1

Pestalotiopsistheae = experiment: Antibacterial activity, filter paper method; type: cell-based; conditions: 28° C.
Source text: as §1

Bacillus thuringiensis = experiment: Antibacterial activity, filter paper method; type: cell-based; conditions: 28° C.
Source text: as §1

[3] = test system: Ornithinibacillus bavariensis; experiment: Antibacterial activity, filter paper method; type: cell-based; conditions: 28° C.
Source text: as §1

Bacillus safensis = experiment: Antibacterial activity, filter paper method; type: cell-based; conditions: 28° C.
Source text: as §1

Phomaexigua var. exigua = experiment: Antibacterial activity, filter paper method; type: cell-based; conditions: 28° C.
Source text: as §1

Rhodotorula mucilaginosa = experiment: Antibacterial activity, filter paper method; type: cell-based; conditions: 28° C.
Source text: as §1

[4] = test system: Lysinibacillus sphaericus; experiment: Antibacterial activity, filter paper method; type: cell-based; conditions: 28° C.
Source text: as §1

normal hepatocytes 7702 = experiment: Cytotoxic activity test, Cell Counting Kit-8; type: cell-based; conditions: 100 ug/ml, 48 hours
Source text: (§2) Cytotoxic activity test method: measure cytotoxic activity using a Cell Counting Kit-8 (CCK-8 kit for short and of Dojindo Laboratories, Japan), namely, […]. The human CCK octapeptide ELISA is a quick high-sensitivity detection kit based on WST-8 and widely applied to cell proliferation and cytotoxic activity. WST-8 is a compound similar to the MTT. With the presence of electronic coupling reagent, WST-8 can be reduced by some dehydrogenases in mitochondria and produce orange formazan. The more and faster the cell proliferation is, the deeper the color; the greater the cytotoxicity is, the lighter the color. For the same cells, the color depth has a linear relationship with the number of cells. Solvent DMSO is used in control group, and pure lysine ester produced by strain Alcanivorax dieselolei T6-6 dissolved in DMSO are used in experimental group. Cells are hepatoma cells 7402 and normal hepatocytes 7702 (available from Sino-US Joint Venture Biohermes Biomedical Technology Ltd). Medicinal concentration is 100 ug/ml, and operation is taken according to kit instruction, with each step repeated three times. After medication, […] is detected in cellular fluid after culturing for 48 hours. Cell toxicity results are shown in Table 8: The medicine-to-cell suppression rate=[negative group (DMSO)−experimental group (dosed)]/negative group (DMSO). […] Accordingly, the active substances of lysine ester generated by the strain Alcanivorax dieselolei T6-6 have better cytotoxic activity.

hepatoma cells 7402 = experiment: Cytotoxic activity test, Cell Counting Kit-8; type: cell-based; conditions: 100 ug/ml, 48 hours
Source text: as §2

[5] = Biosurfactant emulsifying property (emulsion stable value); type: physicochemical
Description: In order to understand the emulsifying activity of lysine ester produced by strain Alcanivorax dieselolei T6-6, we determined the emulsifying stability value of lysine ester produced by strain Alcanivorax dieselolei T6-6 and the chemical surfactants Tween 20 and Triton X-100 against olive oil, n-hexane, dimethylbenzene, hexadecane and petroleum ether. Determination method of biosurfactant emulsifying property: add 5 ml commercially available diesel No. 0 and 5 ml surfactant solution (1%) into a test tube, treat it with ultrasonic generator at 800 W for 40 s, and measure the emulsion and oil phase at different times (0 to 24 hours). Emulsion stable value (Es %)=emulsified layer height (cm)/oil phase height (cm)×100. […] Lysine ester produced by strains Alcanivorax dieselolei T6-6 has a good emulsifying activity (83±1%) on olive oil, and can maintain […] at room temperature. Its emulsifying activity on four other organics is also more than 75%. Good emulsifying activity makes it greatly valuable in environmental pollution control.

[6] = Liquid surface tension (automatic interfacial tensiometer); type: physicochemical
Description: Test method of liquid surface tension: Inoculate the Alcanivorax dieselolei T6-6 single bacterium into MSM medium on clean workbench (with 2% n-hexadecane as the sole carbon source), and culture it in constant temperature air bath shaker incubator (28° C., 200 rpm/min) until thalli obviously grow (about 3 to 5 days), during which take out 10 ml fermentation liquid every 24 hours, and measure its surface tension values using automatic interfacial tensiometer (Manufacturer: Chengde Precision Testing Machine Co., Ltd; Model: JZ-200-a automatic interface tensiometer). […] (For refrigeration of supernatant and hydrophobic layer stratified after centrifugation, the surface tension should be measured when it gets to the room temperature. Thus, the result is comparability and credibility). When measuring liquid surface tension, pour 10 ml fermentation liquid of A. dieselolei T6-6 at temperature of 25° C. into a weighing cup, place the weighing cup in the center of the tray, press “▴” to make the platinum ring deep into 5 mm to 7 mm in the liquid, press “●” to stop; if the peak needs to be kept, firstly press “peak” button, and then press “▾”, the display value will increase gradually, and finally stay at the maximum; this maximum value is the actually measured value of surface tension of liquid, and then press “●” to stop, after the maximum value is recorded, press “reset” button. […]

E. coli. DH5 alpha = experiment: Antibacterial activity, filter paper method; type: cell-based; conditions: bacteriostasis experiment
Source text: as §1
(§3) DH5 alpha, aeromonas hydrophila and Campbell vibrio.

aeromonas hydrophila = experiment: Antibacterial activity, filter paper method; type: cell-based; conditions: bacteriostasis experiment
Source text: as §1, §3

Campbell vibrio = experiment: Antibacterial activity, filter paper method; type: cell-based; conditions: bacteriostasis experiment
Source text: as §1, §3

[7] = Oil expansion activity at different temperatures and pH values; type: physicochemical
Description: Determination method of biosurfactant oil expansion activity: Take a culture dish, add water, and add 0.1 ml hexadecane on the water surface to form oil film. Add the fermentation liquid from the shake flask to the center of oil film to make the central film squeezed to form a circle, the diameter of which positively correlates to the concentration and activity of the biosurfactant. Strains with cycle diameter more than 3 cm are retained for further study. Set pH value in the range of 2 to 10 to determine effect of pH on lysine ester produced by the strain Alcanivorax dieselolei T6-6. Oil expansion diameter varies from 3.6 to 3.9 for lysine ester produced by the strain Alcanivorax dieselolei T6-6 with small fluctuation. It has a good acid and base resistance, and the activity is the highest at pH=8. Considering the structure, it can be inferred that this material is alkaline. And also, when adding a few drops of ammonia expansion on the running TLC plate, the substance will expand more fully, which also proves that it is alkaline.
Treat the pure lysine ester produced by strain Alcanivorax dieselolei T6-6 at temperatures of 20° C., 40° C., 60° C., 80° C. and 100° C. for one hour, and then determine its activity. […] Good thermal stability makes it possible for the substance to be used in high temperature fields.

Compound: CC(C)CCCCCCCCC[C@@H]1CC(=O)N[C@@H](CCC(=O)O)C(=O)N[C@@H](CC(C)C)C(=O)N[C@H](CC(C)C)C(=O)N[C@@H](C(C)C)C(=O)N[C@@H](CC(=O)O)C(=O)N[C@H](CC(C)C)C(=O)N[C@@H](CC(C)C)C(=O)O1 [Surfactin] (EL[dL]VD[dL]L; linker N-C via X1)
- CMC [1]: 45 mg/L

Compound: Triton X-100
- MAD [2]: 0.3 ± 0.08 µg

Compound: CCCCCCCCCCCCCC1CC(=O)N1CCCCC(N)C(=O)O (centres unmarked) [2-amino-6-(2-oxo-4-tridecyl-azetidine-1-yl) hexanoic acid]
- MAD [2]: 0.105 ± 0.05 µg
- Inhibition zone (Bacillus plakortidis): 13.7 mm
- Inhibition zone (Bacillus rhizosphaerae): 10.4 mm
- Inhibition zone (Pestalotiopsistheae): 10.19 mm
- Inhibition zone (Bacillus thuringiensis): 7.2 mm
- Inhibition zone [3]: 14.2 mm
- Inhibition zone (Bacillus safensis): 10.9 mm
- Inhibition zone (Phomaexigua var. exigua): 16.3 mm
- Inhibition zone (Rhodotorula mucilaginosa): 12.1 mm
- Inhibition zone [4]: 11.7 mm
- medicine-to-cell suppression rate (normal hepatocytes 7702): 67.32%
- cell culture fluid OD600 (normal hepatocytes 7702; DMSO control 0.863): 0.282
- medicine-to-cell suppression rate (hepatoma cells 7402): 92.74%
- cell culture fluid OD600 (hepatoma cells 7402; DMSO control 1.667): 0.121
- emulsifying activity compared with Tween 20 and Triton X-100 ([5]; FIG. 12): higher emulsifying activity
- emulsifying activity (emulsion stable value) ([5]; four other organics (n-hexane, dimethylbenzene, hexadecane, petroleum ether)): more than 75%
- emulsifying activity (emulsion stable value) ([5]; olive oil): 83±1%
- time emulsion is maintained ([5]; olive oil, room temperature): 48 h
- surface tension of water after adding component ([6]; 300 ul unconcentrated surfactant added to 20 ml DDW, water alone 78.6): 32.3
- surface tension reduced to ([6]; summary statement): 26-28 mN m-1
- suppression effect (E. coli. DH5 alpha): no suppression effect
- suppression effect (aeromonas hydrophila): no suppression effect
- suppression effect (Campbell vibrio): no suppression effect
- CMC value ([1]; summary statement): 32 mg 1-1
- CMC [1]: 32 mg/L
- pH of highest activity ([7]; oil expansion experiment, pH 2 to 10): 8
- oil expansion diameter ([7]; treated at 121° C. for 15 minutes): about 3.5 cm

Compound: CCCCCCCCCCCCOS(=O)(=O)[O-].[Na+] [SDS]
- MAD [2]: 6.0 ± 0.12 µg
- CMC [1]: 23 mg/L

Compound: Rhamnolipid
- CMC [1]: 50 mg/L

Source: patent publication US9920387B2, “Strain of marine oil-degrading bacteria, compounds obtained by fermentation and their applications” (THIRD INSTITUTE OF OCEANOGRAPHY,STATE OCEANIC ADMINISTRATION, priority 2014, dated 2018)
